US9049864B2, “Pyridazinone herbicidal compounds” (Syngenta Limited, priority 2012, dated 2015)

What was measured:
Test in all cases: Post-emergence herbicidal glasshouse test, percentage damage to the plant
Format in all cases: in vivo
Setaria faberi (SETFA) = system: Setaria faberi (SETFA)
Summary of the method: (§1)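 Activity appears as a score from 1 (0-19% damage) to 5 (80-100%), assessed 13 days after a post-emergence spray of 8-day-old plants. Comparative runs used 250, 500 and 1000 g/ha; the standard rate was 1000 g/ha, formulated in acetone/water (50:50) with 0.5% Tween 20.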

[1] = system: Ipomoea hederacea (IPOHE)
Summary of the method: as §1

Solanum nigrum (SOLNI) = system: Solanum nigrum (SOLNI)
Summary of the method: as §1

[2] = system: Alopecurus myosuroides (ALOMY)
Summary of the method: as §1

[3] = system: Echinochloa crus-galli (ECHCG)
Summary of the method: as §1

[4] = system: Amaranthus retoflexus (AMARE)
Summary of the method: as §1

[5] = post-emergence, 1000 g/ha, evaluated after 13 days
[6] = comparative experiment, rate 250 g/ha
[7] = comparative experiment, rate 500 g/ha
[8] = comparative experiment, rate 1000 g/ha

Row | SMILES | POST Application SETFA, percentage damage (five point scale) (Setaria faberi (SETFA); [5]) | POST Application IPOHE, percentage damage (five point scale) [1, 5] | POST Application SOLNI, percentage damage (five point scale) (Solanum nigrum (SOLNI); [5]) | POST Application ALOMY, percentage damage (five point scale) [2, 5] | POST Application ECHCG, percentage damage (five point scale) [3, 5] | POST Application AMARE, percentage damage (five point scale) [4, 5] | also measured
1 | CN1N=C(COCC2CCCCC2)C(=O)C(n2c(Cl)c(Cl)c3ccccc32)C1=O (stereo not drawn) [Compound 2.011] | 1 (1=0-19%) | 5 (5=80-100%) | 4 (4=60-79%) | 1 (1=0-19%) | 1 (1=0-19%) | 2 (2=20-39%) | 
2 | CCSC1=NN(C)C(=O)C(n2c(Cl)c(Cl)c3ccccc32)C1=O (stereo not drawn) [Compound 2.017] | 1 (1=0-19%) | 1 (1=0-19%) | 3 (3=40-59%) | 1 (1=0-19%) | 2 (2=20-39%) | 4 (4=60-79%) | 
3 | CN1N=CC(=O)C(n2cc(Cl)c3cc(Cl)ccc32)C1=O (stereo not drawn) [Compound 1.016] | 1 (1=0-19%) | 4 (4=60-79%) | 5 (5=80-100%) | 1 (1=0-19%) | 1 (1=0-19%) | 2 (2=20-39%) | 
4 | CC1=NN(C)C(=O)C(n2nc(C(F)(F)F)cc2C)C1=O (stereo not drawn) [Compound A, reference compound] |  |  |  |  |  |  | POST Application SETFA, percentage damage (five point scale) (Setaria faberi (SETFA); [6]): 1 (1=0-19%); POST Application SETFA, percentage damage (five point scale) (Setaria faberi (SETFA); [7]): 1 (1=0-19%); POST Application SETFA, percentage damage (five point scale) (Setaria faberi (SETFA); [8]): 2 (2=20-39%); POST Application IPOHE, percentage damage (five point scale) [1, 6]: 4 (4=60-79%); POST Application IPOHE, percentage damage (five point scale) [1, 7]: 5 (5=80-100%); POST Application IPOHE, percentage damage (five point scale) [1, 8]: 5 (5=80-100%); POST Application SOLNI, percentage damage (five point scale) (Solanum nigrum (SOLNI); [6]): 3 (3=40-59%); POST Application SOLNI, percentage damage (five point scale) (Solanum nigrum (SOLNI); [7]): 4 (4=60-79%); POST Application SOLNI, percentage damage (five point scale) (Solanum nigrum (SOLNI); [8]): 5 (5=80-100%); POST Application ALOMY, percentage damage (five point scale) [2, 6]: 1 (1=0-19%); POST Application ALOMY, percentage damage (five point scale) [2, 7]: 1 (1=0-19%); POST Application ALOMY, percentage damage (five point scale) [2, 8]: 2 (2=20-39%); POST Application ECHCG, percentage damage (five point scale) [3, 6]: 1 (1=0-19%); POST Application ECHCG, percentage damage (five point scale) [3, 7]: 2 (2=20-39%); POST Application ECHCG, percentage damage (five point scale) [3, 8]: 3 (3=40-59%); POST Application AMARE, percentage damage (five point scale) [4, 6]: 3 (3=40-59%); POST Application AMARE, percentage damage (five point scale) [4, 7]: 4 (4=60-79%); POST Application AMARE, percentage damage (five point scale) [4, 8]: 4 (4=60-79%)
5 | CN1N=C(S(C)(=O)=O)C(=O)C(n2c(Cl)c(Cl)c3ccccc32)C1=O (stereo not drawn) [Compound 2.004] | 1 (1=0-19%) | 2 (2=20-39%) | 2 (2=20-39%) | 1 (1=0-19%) | 1 (1=0-19%) | 2 (2=20-39%) | 
6 | CN1N=CC(=O)C(n2ccc3c(Br)cccc32)C1=O (stereo not drawn) [Compound 1.005] | 3 (3=40-59%) | 2 (2=20-39%) | 5 (5=80-100%) | 1 (1=0-19%) | 1 (1=0-19%) | 2 (2=20-39%) | 
